# Measurements: patent US9763905B2, “Therapeutic target for the treatment of cancers and related therapies and methods” (CHILDREN'S MEDICAL CENTER CORPORATION, priority 2013, dated 2017)
# Entries after “also recorded” stand apart in the source; their conditions may differ. Where two headings read alike, the source gives them in different places.
# How the values were obtained:
# [1] = tested on: A2058 human melanoma cell line; test: Cell viability assay (Cell Titer Blue), Examples 1, 3, 4; assay type: cell-based; details: DHA 25-250 μM 144 hours, GW9508 25-150 μM 72 hours, TAK-875 0-0.4 μM
# Procedure: (§1) The human foreskin fibroblast (Hs27) and human melanoma (A2058, A375, SK-Mel 3) cell lines were purchased from ATCC (Manassas Va.). Cells were plated in 48-well plates at a concentration of 7.5×10^3cells/well in either DMEM (Hs27, A2058, A375; Invitrogen/GIBCO, Grand Island N.Y.) or McCoy's 5a medium (SK-Mel 3; Invitrogen/GIBCO) supplemented with 10% FBS (Invitrogen/GIBCO) and incubated at 37° C. in a humidified atmosphere with 5% CO2. After 24 hours the medium was replaced with either DMEM (HS27, A2058, A375) or McCoy's 5a Medium (SK-Mel 3) containing 1% heat […] (Invitrogen/GIBCO) and 0.1% FA-free BSA (Invitrogen/GIBCO) with various concentrations of DHA (Martek, Columbia Md.) prepared in 4 μL of ETOH. DHA was provided at 25-250 μM, and in the studies that follow GW9508 was provided at 25-150 μM and TAK-875 was provided at 0-0.4 μM. Controls were treated with 4 μL of ETOH. All concentrations were tested in quadruplicate.
# (§2) Following 144 hours of DHA treatment cells were trypsinized (Trypsin-EDTA; Invitrogen/GIBCO) and viable cells were counted using an absorbance-based cell viability assay (Cell Titer Blue Cell Viability Assay; Promega, Madison Wis.). During the treatment, medium was changed at 72 hours for the DHA studies. Cell counts were reported as a percent of the control cell count.
# (§3) Human foreskin fibroblast (Hs27) and human melanoma (A2058, A375, SK-Mel 3) cell lines (ATCC, Manassas Va.) were plated in 48-well plates at a concentration of 7.5×10^3cells/well in either DMEM (Hs27, A2058, A375; Invitrogen/GIBCC, Grand Island N.Y.) or McCoy's 5a Medium (SK-Mel 3; Invitrogen/GIBCO) supplemented with 10% FBS (Invitrogen/GIBCO) and incubated at 37° C. in a humidified atmosphere with 5% CO2. After 24 hours the medium was replaced with either DMEM (HS27, A2058, A375) or McCoy's 5a Medium (SK-Mel 3) containing 1% heat inactivated-FBS (Invitrogen/GIBCO) and 0.1% FA-free BSA (Invitrogen/GIBCO) with various concentrations of GW9508 (Cayman Chemical, Ann Arbor Mich.) prepared in 4 μL of ETOH, as described in Example 1. Controls were treated with 4 μL of ETOH. All concentrations were tested in quadruplicate.
# (§4) Following 72 hours of treatment (GW9508) cells were trypsinized (Trypsin-EDTA; Invitrogen/GIBCO) and viable cells were counted using an absorbance-based cell viability assay (Cell Titer Blue Cell Viability Assay; Promega, Madison Wis.). Cell counts are reported as a percent of the control cell count.
# (§5) Given the high expression of GPR40 and the negligible expression of GPR120 by the human melanoma cells evaluated, further studies were performed using the selective, potent and orally bioavailable GPR40 agonist, TAK-875 (Selleck Chemicals) consistent with the methods disclosed in Examples 1 and 3. In particular, such studies were performed to evaluate the ability of TAK-875 to exert an inhibitory effect on human melanoma cell lines in vitro relative to a control fibroblast cell line (Hs27) and the human breast cancer cell line MCF-7, as well as to further evaluate the mechanisms via which compounds such as omega-3 fatty acids exert their cellular effects on human melanoma.
# [2] = tested on: A375 human melanoma cell line; test: as above; assay type: cell-based; details: DHA 25-250 μM 144 hours, GW9508 25-150 μM 72 hours, TAK-875 0-0.4 μM
# Procedure: as §1, §2, §3, §4, §5
# [3] = tested on: SK-Mel3 human melanoma cell line; test: as above; assay type: cell-based; details: DHA 25-250 μM 144 hours, GW9508 25-150 μM 72 hours, TAK-875 0-0.4 μM
# Procedure: as §1, §2, §3, §4, §5
# [4] = tested on: human foreskin fibroblast (Hs27) control cell line; test: as above; assay type: cell-based; details: DHA 25-250 μM 144 hours, GW9508 25-150 μM 72 hours, TAK-875 0-0.4 μM
# Procedure: as §1, §2, §3, §4, §5
# [5] = tested on: control human foreskin fibroblast (Hs27) cell line; test: Cell viability assay (Cell Counting Kit-8), Example 5; assay type: cell-based; details: DHA 0-250 μM, TAK-875 0-0.4 μM, 3 and 6 days
# Procedure: (§6) Neuroblastoma cell lines used to perform the present studies include: ShSY5Y, IMR-32, SK-NSH, SK-NAS. Melanoma cell lines used include: A2058, A375, and SK-Mel3. Medullary thyroid carcinoma cell line used includes: TT. Malignant peripheral nerve sheath tumor used includes: sNF94.3. Control cell lines used included: human foreskin fibroblast line (Hs27), breast cancer cell lines (MCF-7 and […]), human umbilical vein endothelial cells (HUVEC) and human melanocytes (HMn). ShSY5Y was cultured in MEM/F12 containing 10% heat inactivated fetal bovine serum (FBS) (Invitrogen/GIBCO, Grand Island, N.Y.). IMR-32 was cultured in MEM containing 10% FBS (Invitrogen/GIBCO). SK-NSH was cultured in RPMI-1640 containing 10% FBS (Invitrogen/GIBCO). SK-Mel 3 was cultured in McCoy's 5a containing 10% FBS (Invitrogen/GIBCO). TT was cultured in F-12K containing 10% FBS (ATCC, Manassas, Va.). […] was cultured in Leibovitz's L-15 containing 10% FBS (ATCC). HUVEC was cultured with EGM-2 Bullet Kit (Lonza, Hopkinton, Mass.). HMn were cultured in MGM-4 (Lonza). All other cell lines were cultured in DMEM with 10% FBS (Invitrogen/GIBCO). Cells were incubated at 37° C. in a humidified atmosphere with 5% CO2. Cells were plated in 96-well plates to approximately 50% confluence prior to initial treatment.
# (§7) Cells treated with the GPR40 agonist DHA had growth media that was replaced with each respective media containing 1% FBS and 0.1% FA-free BSA with varying concentrations of DHA (Cayman Chemical, Ann Arbor, Mich.) ranging from 0-250 μM solubilized in ethanol (Pharmco-Aaper, Brookfield, Conn.). Cells treated with the GPR40 agonist TAK-875 had growth media that was replaced with each respective media containing 10% FBS with varying concentration of TAK-875 (Selleck Chemicals, Houston, Tex.) ranging from 0-0.4 μM solubilized in dimethyl sulfoxide (Sigma-Aldrich, St. Louis, Mo.). Following 72 hours (TAK-875) or 144 hours (DHA) of treatment, viable cells were quantified using an absorbance-based cell viability assay (Cell Counting Kit-8, Dojindo, Kumamoto, Japan).
# [6] = tested on: human breast cancer cell line MCF-7; test: Cell viability assay, Example 4; assay type: cell-based; details: TAK-875
# [7] = tested on: human melanoma (A2058) xenograft; test: Murine subcutaneous xenograft model of human melanoma, established tumors, oral TAK-875; assay type: in vivo, SCID mice; details: 100 mg/kg/day oral, N=7/group
# Procedure: The subcutaneous murine xenograft model of human melanoma was created in 6-week old severe combined immunodeficiency (SCID) mice (Jackson Laboratories, Bar Harbor, Me.) by subcutaneous injection of 1×10^6 human melanoma cells (A2058) in […] of PBS (Invitrogen/GIBCC) into the left flank of each animal. Animal weights and tumor dimensions were measured every 48 hours. Tumor volume was calculated using the following formula: volume=length×width^2×0.52. In accordance with the methods disclosed in Example 2, a murine subcutaneous xenograft model of human melanoma was prepared and used to test the effect of once daily oral TAK-875 on the growth of established melanoma tumors in vivo. Animals were treated daily for 14 days with either a control solution or an oral solution of TAK-875 (100 mg/kg/day) from the time their tumor volume reached 200 mm^3. […] Most importantly the change in tumor volume from start of drug treatment to completion of 14 days of treatment, was 77% lower in the TAK-875 group compared to placebo (P=0.04, FIG. 3G).
# [8] = tested on: IMR-32 neuroblastoma cell line; test: Cell viability assay (Cell Counting Kit-8), Example 5; assay type: cell-based, human; details: DHA 0-250 μM, TAK-875 0-0.4 μM, 3 and 6 days
# Procedure: as §6, §7
# [9] = tested on: SK-NAS neuroblastoma cell line; test: as above; assay type: cell-based, human; details: DHA 0-250 μM, TAK-875 0-0.4 μM, 3 and 6 days
# Procedure: as §6, §7
# [10] = tested on: SK-NSH neuroblastoma cell line; test: as above; assay type: cell-based, human; details: DHA 0-250 μM, TAK-875 0-0.4 μM, 3 and 6 days
# Procedure: as §6, §7
# [11] = tested on: ShSY5Y neuroblastoma cell line; test: as above; assay type: cell-based, human; details: DHA 0-250 μM, TAK-875 0-0.4 μM, 3 and 6 days
# Procedure: as §6, §7
# [12] = tested on: A2058 human melanoma cell line; test: as above; assay type: cell-based; details: DHA 0-250 μM, TAK-875 0-0.4 μM, 6 days
# Procedure: as §6
# (§8) Cells treated with the GPR40 agonist DHA had growth media that was replaced with each respective media containing 1% FBS and 0.1% FA-free BSA with varying concentrations of DHA (Cayman Chemical, Ann Arbor, Mich.) ranging from 0-250 μM solubilized in ethanol (Pharmco-Aaper, Brookfield, Conn.). Cells treated with the GPR40 agonist TAK-875 had growth media that was replaced with each respective media containing 10% FBS with varying concentration of TAK-875 (Selleck Chemicals, Houston, Tex.) ranging from 0-0.4 μM solubilized in dimethyl sulfoxide (Sigma-Aldrich, St. Louis, Mo.). […]
# [13] = tested on: A375 human melanoma cell line; test: as above; assay type: cell-based; details: DHA 0-250 μM, TAK-875 0-0.4 μM, 6 days
# Procedure: as §6, §8
# [14] = tested on: SK-Mel 3 human melanoma cell line; test: as above; assay type: cell-based; details: DHA 0-250 μM, TAK-875 0-0.4 μM, 6 days
# Procedure: as §6, §8
# [15] = tested on: human medullary thyroid carcinoma cell line (TT); test: as above; assay type: cell-based; details: DHA 0-250 μM, TAK-875 0-0.4 μM, 3 and 6 days
# Procedure: as §6, §7
# human melanocytes (HMn) = test: as above; assay type: cell-based; details: HMn primary melanocytes; DHA 0-250 μM, TAK-875 0-0.4 μM; 3 and 6 days
# Procedure: as §6, §7
# [16] = tested on: human umbilical vein endothelial cells (HUVEC); test: as above; assay type: cell-based; details: DHA 0-250 μM, TAK-875 0-0.4 μM, 3 and 6 days
# Procedure: as §6, §7
# [17] = tested on: malignant peripheral nerve sheath tumor (MPNST) (sNF94.3) cell line; test: as above; assay type: cell-based; details: DHA 0-250 μM, TAK-875 0-0.4 μM, 3 and 6 days
# Procedure: as §6, §7
# [18] = tested on: breast cancer cell line MCF-7; test: as above; assay type: cell-based, human; details: TAK-875, 6 days
# Procedure: as §6, with “treatment. […]” for “treatment.”
# [19] = tested on: breast cancer cell line MDA-MB-321; test: as above; assay type: cell-based, human; details: TAK-875, 6 days
# Procedure: as §6, with “treatment. […]” for “treatment.”
# [20] = healthy human subjects, very high doses; cited from earlier work
# [21] = rat, in vivo; cited from earlier work
smiles,measurement,setting,value
O=C(O)CCc1ccc(NCc2cccc(Oc3ccccc3)c2)cc1 [GW9508],effect on growth / viable cell count (percent of control),[1],profound inhibitory effect on the growth
same,effect on growth / viable cell count (percent of control),[2],profound inhibitory effect on the growth
same,effect on growth / viable cell count (percent of control),[3],profound inhibitory effect on the growth
same,effect on growth / toxicity in control fibroblasts,[4],not toxic
"CC/C=C\C/C=C\C/C=C\C/C=C\C/C=C\C/C=C\CCC(=O)O [DHA, docosahexaenoic acid]",effect on growth / toxicity in control fibroblasts,[4],no growth inhibition
same,cell viability / toxicity in control cell line,[5],Little to no effect; also recorded: little effect; also recorded: Toxicity was observed in the control Hs27 cell line at high concentrations
Cc1cc(OCCCS(C)(=O)=O)cc(C)c1-c1cccc(COc2ccc3c(c2)OC[C@H]3CC(=O)O)c1 [TAK-875],effect on growth / viable cell count (percent of control),[1],robust and selective cytotoxic effect
same,effect on growth / viable cell count (percent of control),[2],robust and selective cytotoxic effect
same,effect on growth / viable cell count (percent of control),[3],robust and selective cytotoxic effect
same,effect on growth / toxicity in control fibroblasts,[4],did not influence the growth
same,effect on growth,[6],did not influence the growth
same,tumors smaller in volume versus placebo,"[7]; 14 days, from tumor volume 200 mm^3, P=0.03",62%
same,tumors smaller in weight versus placebo,"[7]; 14 days, from tumor volume 200 mm^3, P=0.07",46%
same,animal weights versus placebo,[7]; 14 days,not significantly different
same,"change in tumor volume from start of drug treatment to completion of 14 days, lower compared to placebo",[7]; P=0.04,77%
same,cell viability,[8],significantly attenuated viability
same,cell viability,[9],significantly attenuated viability
same,cell viability,[10],significantly attenuated viability
same,cell viability,[11],significantly attenuated viability
same,cell viability,[12],significant decrease in cell viability
same,cell viability,[13],significant decrease in cell viability
same,cell viability,[14],significant decrease in cell viability
same,cell viability / toxicity in control cell line,[5],Little to no effect; also recorded: little effect; also recorded: Toxicity was observed in the control Hs27 cell line at high concentrations
same,cell viability,[15],pronounced decrease
same,cell viability,human melanocytes (HMn),dramatic decrease in cell viability
same,cell viability,[16],minimal change in viability
same,cell viability,[17],pronounced effect
same,cell viability,[18],decrease in cell viability was observed at high concentrations
same,cell viability,[19],decrease in cell viability was observed at high concentrations
same,safety and tolerability,[20],safe and well tolerated
same,safety and tolerability,[21],safe and well tolerated
